Data published in PubChem BioAssay AID1963850 (Molecular Pharmacology Branch, DTP, NCI, 2024).
Values joined by “and” are separate entries in the source; they are usually repeats but may differ in a detail not shown here. Identical values can stand only once.

System: 192522-019-R-J2-PDC complex tumor spheroid viability
Test: Anticancer human tumor 192522-019-R-J2-PDC patient-derived colon adenocarcinoma cell line growth inhibition [POLQ]
Settings: for viability, T/C: stronger effect = lower value
Protocol: Multicellular complex tumor spheroid response to Polymerase (POL) inhibitors (novobiocin, ART-558, RP6685) in combination with a variety of drugs and investigational agents in selected tumor cell lines
The POL inhibitors (novobiocin, ART-558, and RP6685) were evaluated both individually and in combination with standard of care and investigational anticancer small molecules within a complex spheroid model of solid tumors. . Complex spheroids include a stromal component modeled by human endothelial cells (HUVEC) and fibroblasts modeled by human mesenchymal stem cells (MSCs). The concentration ranges selected for each drug and investigational agent were based upon clinically achievable concentrations if the clinical Cmax of the agent was known.
Compounds. The drugs and investigational agents: novobiocin (NSC847541), ART-558 (NSC835418), RP-6685 (NSC848927), peposertib (NSC802822), ceralasertib (NSC780249), elimusertib (NSC800525), camonsertib (NSC841442), AZD-1390 (NSC803789), olaparib (NSC753686), talazoparib (NSC767125), rucaparib (NSC756644), sotorasib (NSC818433), MRTX-1133 (NSC836407), SN-38 (NSC673596), topotecan (NSC609699), epotoside (NSC141540), doxorubicin (NSC123127), gemcitabine (NSC613327), 5-fluorouracil (NSC19893), paclitaxel (NSC125973), vemurafenib (NSC761431), MSA-2 (NSC828583), SN-011 (NSC837082), adavosertib (NSC754352), prexasertib (NSC758257), carboplatin (NSC241240) and oxaliplatin (NSC266046), were obtained from the National Cancer Institute (NCI) Developmental Therapeutics Program Chemical Repository (21). The FDA-approved anticancer drug set is available from the Developmental Therapeutics Program at https://dtp.cancer.gov/organization/dscb/obtaining/. […] The stock solutions were prepared in dimethyl sulfoxide (DMSO, Sigma-Aldrich, St. Louis, MO, cat. D2650), except for the platinum compounds which were prepared in saline (Quality Biological, Gaithersburg, MD, cat. 114-055-101), at 800-fold the tested concentration and stored at -70 degrees C prior to their use. All drugs and investigational agents were tested over a range starting from a high concentration at or near the clinical Cmax and decreasing in half-log increments. If the clinical Cmax for an agent had not been determined, the highest concentration tested was 10 microM, except for SN-38, which was tested at a high concentration of 1 microM.
Cell Culture. All cells were maintained in an incubator at 37 degrees C and 5% CO2 with 95% humidity. The PDC lines were cultured according to standard operating procedures established by the NCI PDMR (https://pdmr.cancer.gov). Table 3 of the manuscript, lists the cell lines along with the number of the three cell types plated to form the mct-spheroids and media for tumor cell growth. After thawing, all PDC lines, except 997537-175-T-J1-PDC and 415267-285-R-J2-PDC, were cultured in Matrigel-coated flasks prepared with a working solution of 1X Ham's F-12 nutrient mix, without supplementation (Thermo Fisher Scientific, cat. 11765054), 100 U/mL penicillin-streptomycin (Thermo Fisher Scientific, cat. 15140122), and 2.5% Matrigel (Corning Inc., Corning, NY, cat. 354248) for the first three passages. The two PDC lines 997537-175-T-J1-PDC and 415267-285-R-J2-PDC were cultured on uncoated flasks. The 857933-349-R-J2-PDC line was cultured in 6C/Colon 1B media containing advanced DMEM/F-12 (Thermo Fisher Scientific, cat. 12634028), 10 mM HEPES (Thermo Fisher Scientific, cat. 15630080), 1X GlutaMAX supplement (Thermo Fisher Scientific, cat. 35050061), 0.1 mg/mL primocin (InvivoGen, San Diego, CA, cat. ant-pm-2), 10% defined fetal bovine serum, heat inactivated (HyClone Laboratories Inc., Logan, UT, cat. SH30070.03HI), 50% L-WRN conditioned media (ATCC, cat. CRL-3276), 1.25 mM N-Acetyl-L-cysteine (Sigma-Aldrich, cat. A9165), 10 mM nicotinamide (Sigma-Aldrich, cat. N0636), 1X B-27 supplement (Thermo Fisher Scientific, cat. 17504044), 1X N-2 supplement (Thermo Fisher Scientific, cat. […]
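Also: spheroids exposed to drugs for seven days before reading.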
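For viability, T/C in this document: 100% = DMSO vehicle control viability in luminescence.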

With `C#Cc1c(F)ccc2cc(O)cc(-c3ncc4c(N5CC6CCC(C5)N6)nc(OCC56CCCN5CC(F)C6)nc4c3F)c12` (stereo unspecified) the viability, T/C (compound 0.0316 µM) was 102% and 98.2% and 109%, the viability, T/C (compound 0.1 µM) was 93.6% and 81.8% and 87.3% and the viability, T/C (compound 0.316 µM) was 73.3% and 77.1% and 80.5%. The viability, T/C (compound 1 µM) was 78.4% and 77.9% and 83.4%, the viability, T/C (compound 3.16 µM) was 78.9% and 73.7% and 70.6% and the viability, T/C (compound 10 µM) was 67.8% and 64.1% and 64.3%. It also gave an IC50 (curve of compound) of over 10 µM.
For `CCc1cc2c(N3CCc4c(cc(Cn5ccnc5)cc4-c4cn(C)nc4C(F)(F)F)C3=O)cc(C)nc2c(OC)n1`, the viability, T/C (compound 0.0316 µM) was 109% and 107% and 102%, the viability, T/C (compound 0.1 µM) was 91.4% and 91% and 94.7% and the viability, T/C (compound 0.316 µM) was 80.7% and 86.7% and 85.3%. For the same molecule, the viability, T/C (compound 1 µM) was 80.1% and 82% and 77.7%, the viability, T/C (compound 3.16 µM) was 73.1% and 73% and 75.4% and the viability, T/C (compound 10 µM) was 68.1% and 75.8% and 68.3%. For the same molecule, the IC50 (curve of compound) was over 10 µM.
With `CNCc1ccc(-c2[nH]c3cc(F)cc4c3c2CCNC4=O)cc1` the viability, T/C (compound 0.0316 µM) was 104% and 103% and 93%, the viability, T/C (compound 0.1 µM) was 98.4% and 101% and 86% and the viability, T/C (compound 0.316 µM) was 104% and 102% and 109%. The viability, T/C (compound 1 µM) was 107% and 120% and 102%, the viability, T/C (compound 3.16 µM) was 100% and 108% and 105% and the viability, T/C (compound 10 µM) was 96.8% and 103% and 92.1%. The IC50 (curve of compound) was over 10 µM.
Molecule `COc1cc2cc(C(=O)CCC(=O)O)sc2cc1OC` + Cc1cccc(N(C)C(=O)C2C(O)CCN2c2nc(C)cc(C(F)(F)F)c2C#N)c1 has an IC50 (curve of first compound, second compound 0.0316 µM) of over 10 µM, an IC50 (curve of first compound, second compound 0.1 µM) of over 10 µM and an IC50 (curve of first compound, second compound 0.316 µM) of over 10 µM. It also gave an IC50 (curve of first compound, second compound 1 µM) of over 10 µM, an IC50 (curve of first compound, second compound 3.16 µM) of over 10 µM and an IC50 (curve of first compound, second compound 10 µM) of over 10 µM. For the same molecule, the viability, T/C (second compound 0.0316 µM, first compound 0.0316 µM) was 114%, the viability, T/C (second compound 0.0316 µM, first compound 0.1 µM) was 97.4% and the viability, T/C (second compound 0.0316 µM, first compound 0.316 µM) was 94.9%. For the same molecule, the viability, T/C (second compound 0.0316 µM, first compound 1 µM) was 95.8%, the viability, T/C (second compound 0.0316 µM, first compound 3.16 µM) was 98.7% and the viability, T/C (second compound 0.0316 µM, first compound 10 µM) was 92.5%. It also gave a viability, T/C (second compound 0.1 µM, first compound 0.0316 µM) of 107%, a viability, T/C (second compound 0.1 µM, first compound 0.1 µM) of 99.6% and a viability, T/C (second compound 0.1 µM, first compound 0.316 µM) of 96.1%. The viability, T/C (second compound 0.1 µM, first compound 1 µM) was 110%, the viability, T/C (second compound 0.1 µM, first compound 3.16 µM) was 103% and the viability, T/C (second compound 0.1 µM, first compound 10 µM) was 107%. It also gave a viability, T/C (second compound 0.316 µM, first compound 0.0316 µM) of 102%, a viability, T/C (second compound 0.316 µM, first compound 0.1 µM) of 100% and a viability, T/C (second compound 0.316 µM, first compound 0.316 µM) of 93.8%. For the same molecule, the viability, T/C (second compound 0.316 µM, first compound 1 µM) was 101%, the viability, T/C (second compound 0.316 µM, first compound 3.16 µM) was 104% and the viability, T/C (second compound 0.316 µM, first compound 10 µM) was 110%. It also gave a viability, T/C (second compound 1 µM, first compound 0.0316 µM) of 101%, a viability, T/C (second compound 1 µM, first compound 0.1 µM) of 106% and a viability, T/C (second compound 1 µM, first compound 0.316 µM) of 97.7%. For the same molecule, the viability, T/C (second compound 1 µM, first compound 1 µM) was 108%, the viability, T/C (second compound 1 µM, first compound 3.16 µM) was 108% and the viability, T/C (second compound 1 µM, first compound 10 µM) was 105%. The viability, T/C (second compound 3.16 µM, first compound 0.0316 µM) was 108%, the viability, T/C (second compound 3.16 µM, first compound 0.1 µM) was 104% and the viability, T/C (second compound 3.16 µM, first compound 0.316 µM) was 96.3%. For the same molecule, the viability, T/C (second compound 3.16 µM, first compound 1 µM) was 96.6%, the viability, T/C (second compound 3.16 µM, first compound 3.16 µM) was 101% and the viability, T/C (second compound 3.16 µM, first compound 10 µM) was 105%. The viability, T/C (second compound 10 µM, first compound 0.0316 µM) was 103%, the viability, T/C (second compound 10 µM, first compound 0.1 µM) was 102% and the viability, T/C (second compound 10 µM, first compound 0.316 µM) was 103%. For the same molecule, the viability, T/C (second compound 10 µM, first compound 1 µM) was 102%, the viability, T/C (second compound 10 µM, first compound 3.16 µM) was 111% and the viability, T/C (second compound 10 µM, first compound 10 µM) was 97.4%.
`CCc1cc2c(N3CCc4c(cc(Cn5ccnc5)cc4-c4cn(C)nc4C(F)(F)F)C3=O)ccnc2c(OC)n1` was tested, and the viability, T/C (compound 0.0316 µM) was 102% (2×) and 107%, the viability, T/C (compound 0.1 µM) was 84.3% and 91.4% and 86.7% and the viability, T/C (compound 0.316 µM) was 88.2% and 90.7% and 92.4%. The viability, T/C (compound 1 µM) was 87.8% and 81.3% and 83.7%, the viability, T/C (compound 3.16 µM) was 76.5% and 75.1% and 70.2% and the viability, T/C (compound 10 µM) was 65.6% and 72.1% and 73%. For the same molecule, the IC50 (curve of compound) was over 10 µM.
For `COC1C(OC(N)=O)C(O)C(Oc2ccc3c(O)c(NC(=O)c4ccc(O)c(CC=C(C)C)c4)c(=O)oc3c2C)OC1(C)C` (stereo unspecified), the viability, T/C (compound 0.0316 µM) was 108% [middle of 13 runs], the viability, T/C (compound 0.1 µM) was 106% [middle of 13 runs] and the viability, T/C (compound 0.316 µM) was 106% [middle of 13 runs]. The viability, T/C (compound 1 µM) was 103% [middle of 13 runs], the viability, T/C (compound 3.16 µM) was 101% [middle of 13 runs] and the viability, T/C (compound 10 µM) was 106% [middle of 13 runs]. For the same molecule, the IC50 (compound alone, run of 10/31/2023) was over 10 µM.
With `C=CC(=O)N1CCN(c2nc(=O)n(-c3c(C)ccnc3C(C)C)c3nc(-c4c(O)cccc4F)c(F)cc23)C(C)C1` (stereo unspecified) the viability, T/C (compound 0.0316 µM) was 107% (2×) and 105%, the viability, T/C (compound 0.1 µM) was 92.4% and 101% and 94.3% and the viability, T/C (compound 0.316 µM) was 95% and 94.1% and 97.7%. The viability, T/C (compound 1 µM) was 106% and 102% and 109%, the viability, T/C (compound 3.16 µM) was 104% and 113% and 112% and the viability, T/C (compound 10 µM) was 104% and 109% and 108%. The IC50 (curve of compound) was over 10 µM.
With `CCCS(=O)(=O)Nc1ccc(F)c(C(=O)c2c[nH]c3ncc(-c4ccc(Cl)cc4)cc23)c1F` the viability, T/C (compound 0.0316 µM) was 96.5% and 100% and 106%, the viability, T/C (compound 0.1 µM) was 108% and 104% and 96.8% and the viability, T/C (compound 0.316 µM) was 105% and 96.5% and 104%. For the same molecule, the viability, T/C (compound 1 µM) was 106% and 108% and 97.6%, the viability, T/C (compound 3.16 µM) was 116% and 106% and 120% and the viability, T/C (compound 10 µM) was 74% and 82% and 94.8%. The IC50 (curve of compound) was over 10 µM.
